According to patent US20240287477A1, “CATALASE MIMETIC PEPTIDES” (Northwestern University, priority 2023, published 2024):
Square brackets hold non-standard residues; d marks the D form. Ends that are not written are not given here.

What was measured:
Type in all cases: cell-based
E-Cadherin (E-Cad) = test: Western blot of epithelial marker E-cadherin in transformed cells, day 5; settings: cells exposed only to 4-OHT
Procedure: (§1) FIG. 1A. REDOX effects promoted by peptidyl di-copper complex. (A) Oxidized (λex=[…]) and reduced (λex=[…]) roGFP2 signals 30 minutes after exposure to the metallocomplex (Day 1) and at the final of the experiment (Day 5) were measured and the oxidized/reduced ratio was obtained using ImageJ (shown as histogram). FIG. 1B. Representative images of MCF-10AER/cSrc transformation after treatment with 4-hydroxy-tamoxifen (1 μM) registered by Lionheart (phase contrast). FIG. 1C. Western blot analysis of E-Cadherin (E-Cad), Fibronectin (FN1), and Vimentin (Vim) in MCF-10AER/cSrc transformed cells (5 days after 4-OHT treatment). CATm1-peptidyl di-copper complex, as previously reported, DNK01-peptidyl di-copper complex with D-amino acids, sd-single dose, cd-daily doses.
(§2) Experiments were conducted during development of embodiments herein to measure the expression of EMT markers in this system at the end of the experiment (day 5). […] But in cells exposed only to 4-OHT, the levels dropped to almost 50% in comparison to the control cells. In the same FIGURE, the mesenchymal markers Vimentin and Fibronectin were also probed by western blot. […] Transformed cells, 4-OHT treated, expressed 3 times compared to control, and cells also treated with peptides in single doses.

Fibronectin (FN1) = test: Western blot of mesenchymal marker Fibronectin in transformed cells, day 5; settings: 4-OHT treated only
Procedure: as §1, §2

[1] = tested on: MCF-10A ER/cSrc/NLS-Orp1-roGFP2 cells; test: Nuclear ROS by NLS-roGFP2-Orp1 oxidized/reduced ratio after 4-OHT exposure; settings: peptide 250 μM, CuSO4 500 μM; for ROS levels: day 5
Procedure: as §1
Lyophilized peptides were resuspended in MOPS buffer (30 mM, pH 7.5) to a concentration of 5 mM; a 50 mM copper solution was prepared in the same buffer. Both solutions were mixed in a 1:2 (peptide:copper) concentration 30 minutes before applying them to the cell culture. The final concentration of the complex in the cell culture was peptide at 250 μM and CuSO4 at 500 μM. The culture was monitored by measuring the ratio I(405/525)/I(488/525) given by the NLS-roGFP2-Orp1.
Exposure to 4-hydroxytamoxifen (4-OHT) transforms MCF-10A ER/cSrc/NLS-Orp1-roGFP2 cells into a tumorous cell line due to the oxidation of the nuclear compartment. Experiments were conducted by measuring the nuclear ROS in these cells. Probe oxidation status was monitored for 5 days after exposure to 4-OHT (FIG. 1A). […] It was not sufficient to keep the ROS levels as low as on day 1. This was due to a disruption of the complex and accumulation of free copper in the media.

MCF-10AER/cSrc = test: Transformation (spiked shape) of cells after 4-hydroxy-tamoxifen, phase contrast imaging; settings: after 4-OHT (1 μM); either in single dose or every day
Procedure: as §1
Another important observation was the delayed transformation of the cells in the system. After exposure to 4-OHT, cells acquired a spiked shape as soon as day 1 to day 2 (FIG. 1B). This process was delayed for two days when the cells were exposed to Cu^2+-CATm1 or Cu^2+-DNK01 either in single dose or every day.

Substance | E-cadherin levels in comparison to the control cells (E-Cadherin (E-Cad)) | Fibronectin expression compared to control (Fibronectin (FN1)) | levels of nuclear oxidants ([1]; day 1, right after exposure (30 minutes), 4-OHT treated cells) | ROS levels ([1]; presented everyday with fresh media) | ROS levels ([1]; single dose in day 1) | delay of transformation of the cells (spiked shape) (MCF-10AER/cSrc)
4-hydroxytamoxifen [4-OHT] | ~50% | 3 times | – | – | – | –
PHYKHRLH (also: di-copper complex) [CATm1, short peptidyl di-copper complex developed to mimic catalase, as previously reported] | – | – | lower levels of nuclear oxidants | keep the ROS in lower levels | ROS levels increase | two
dPdHdYdKdHdRdLdH ([dP][dH][dY][dK][dH][dR][dL][dH]; also: di-copper complex) [DNK01, peptidyl di-copper complex with D-amino acids] | – | – | – | – | – | two
